Values joined by “and” are separate entries in the source; they are usually repeats but may differ in a detail not shown here. Identical values can stand only once. Like-named read-outs stand apart in the source and are kept apart here. Some results are limits rather than exact numbers.

We go through five compounds from article PMC12434668 (Journal of Medicinal Chemistry, 2025).

The subject of one series is NCI-H929 cells. The series is described as follows: In vitro proliferation assay (CellTiter-Glo), H929. The series is classed as cell-based. To be noted: Homo sapiens, H929 cell line, average of at least n = 2, triplicate. The method, then:
(§1) NCI-H929, A427, and K562 cell lines were obtained from ATCC. NCI-H929 cells were cultured in RPMI1640 (ATCC-formulated, Catalog No. 30-2001) + 10% fetal calf serum (FCS, GIBCO BRL, Cat. No. 26140) + 0.05 mM mercaptoethanol. A-427 cells were cultured in RPMI1640 (ATCC-formulated, Catalog No. 30-2001) + 10% fetal calf serum (FCS, GIBCO BRL, Cat. No. 26140). K562 cell lines were cultured in Iscove’s Modified Dulbecco Medium (Gibco-formulated, purchased from Thermo-Fisher, Cat. No. 12440-053) + 10% fetal bovine serum (FBS, Sigma-Aldrich, F2442). All cell lines were cultured at 37 °C with 5% CO2 in a humidified incubator and have been regularly tested negatively for mycoplasm contamination.
(§2) Cells were seeded at 750–1500 cells per well (depending on growth kinetics) in 384-well plates (Corning, Catalog No. 3707) or at 3000 cells per well in 96-well plates in the respective growth medium and allowed to settle overnight. Suspension cells were plated immediately before compound addition. Adherent cell lines were incubated overnight at 37 °C in a tissue culture incubator prior to compound addition. Compounds were added in triplicates using an HP D300e Digital Dispenser (Hewlett-Packard) or manually at the concentrations indicated and total volumes were normalized using DMSO backfill, with final DMSO concentration of 0.5%. Control wells were treated with DMSO only. Following incubation for 72 or 96 h, a Cell Titer-Glo assay was conducted following the manufacturer recommendations (Promega, G9243) and luminescence was measured using a Victor X5 (PerkinElmer) or a Cytation 3 (Biotek) plate reader. % Viability was defined as relative luminescence units (RLU) of each well divided by the RLU of cells on day 0. Four parameter sigmoidal dose–response curves were generated and IC50 values were determined using XLFit (IDBS) software (eq 205) or in-house software. Drug combination experiments were performed in 96-well or 384-well format and drug synergy was determined using the BLISS model (PMID: 26171228).
A general note: Cellular ATP, detected with luciferase, serves as a proxy for viable cell number.

For the next series, the system named is K562 cells. The series is described as follows: In vitro proliferation counterscreen, Mcl-1 insensitive K562. The series is classed as cell-based. To be noted: Homo sapiens; Mcl-1 insensitive K562; top concentration tested 12.5 µM. The method, then:
NCI-H929, A427, and K562 cell lines were obtained from ATCC.
Suspension cells were plated immediately before compound addition. Adherent cell lines were incubated overnight at 37 °C in a tissue culture incubator prior to compound addition. Compounds were added in triplicates using an HP D300e Digital Dispenser (Hewlett-Packard) or manually at the concentrations indicated and total volumes were normalized using DMSO backfill, with final DMSO concentration of 0.5%. Control wells were treated with DMSO only. Following incubation for 72 or 96 h, a Cell Titer-Glo assay was conducted following the manufacturer recommendations (Promega, G9243) and luminescence was measured using a Victor X5 (PerkinElmer) or a Cytation 3 (Biotek) plate reader. % Viability was defined as relative luminescence units (RLU) of each well divided by the RLU of cells on day 0.
For orientation: The purpose of a counterscreen is to sort out artefacts and off-target activity.

Another series deals with A427 cells. Kind of series: In vitro proliferation assay (CellTiter-Glo), A427. The format is cell-based. To be noted: Homo sapiens, A-427; A427 cell line; average of at least n = 2, triplicate. On the procedure: as §1, §2
In a further series the target is T1, Mcl-1 (Homo sapiens, UniProt Q07820).
T1 construct: Briefly, a previously reported construct was subcloned into an expression vector (pDEST-HisMBP); MBP (from vector pDEST-HisMBP); made in house; host or cells: Escherichia coli BL21 CodonPlus (DE3) RIL
Kind of series: TR-FRET binding assay (FITC-Bak peptide competition). An excerpt: Protein preparation was described previously. Briefly, a previously reported construct was subcloned into an expression vector (pDEST-HisMBP) expressed in Escherichia coli BL21 CodonPlus (DE3) RIL (Stratagene) and purified through nickel-column and size-exclusion chromatography sequentially.
Mixtures containing vehicle without compound served as a negative control, while mixtures containing no protein served as a positive control. […] Two or more repeats were obtained and average K i values are reported.
For orientation: TR-FRET usually uses a lanthanide donor and a delayed reading to cut background.

The nature of series [1]: Mouse pharmacokinetic analyses (i.v. and oral). The format is in vivo. The settings on record: plasma, iv. On the procedure:
For PK analysis, mice were administered intravenously or orally with compound formulated in 10% ethanol and 10% Cremophor EL. Compound 13 dosing was also screened with 20% Phosphal IPG, 20% Phosphal MCT, 10% HP-β-CD, and 40% HP-β-CD. Plasma samples were obtained at predefined time points and compound concentrations in plasma were measured by quantitative HPLC–MS/MS using an internal standard. Calibration and quality control samples were prepared using blank plasma from untreated animals. Samples were precipitated with acetonitrile and injected into a HPLC system (Agilent 1200). Separation was performed by gradients of 5 mmol/L ammonium acetate pH 5.0 and acetonitrile with 0.1% formic acid on a Luna C8 reversed-phase column with 2.5 μm particles (Phenomenex). The HPLC was interfaced by ESI operated in positive ionization mode to a triple quadrupole mass spectrometer (6500+ Triple Quad System, SCIEX) operated in multiple reaction monitoring mode. Chromatograms were analyzed with Analyst (SCIEX) and pharmacokinetic parameters were calculated by noncompartmental analysis using proprietary software.

In series [2] the test system is caspase 3/7 in H929 cells. Kind of series: Caspase 3/7 induction assay (Caspase-Glo), H929. The series is classed as cell-based. To be noted: compound treatment for 3 h; for EC50: Homo sapiens, NCI-H929. On the procedure: (§3) Cells were treated with a 10-point compound titration and incubated at 37 °C for 3 h.
Series [3] concerns caspase 3/7 in K562 cells. The series is described as follows: Caspase 3/7 induction assay (Caspase-Glo), K562. The series is classed as cell-based. To be noted: compound treatment for 3 h; for EC50: Homo sapiens, K562. The method, then: as §3
The subject of series [4] is caspase 3/7 in A427 cells. Kind of series: Caspase 3/7 induction assay (Caspase-Glo), A427. The settings on record: compound treatment for 3 h; for EC50: Homo sapiens, A-427. The series is classed as cell-based. On the procedure: as §3
Where [5] appears, read: in the presence of 1% fetal bovine serum, average of at least n = 2, read-out: TRFRET, Mcl-1 Ki.
The mark [6] stands for this setting: supplementary CSV, unit not given (Table 1: 20 mg/kg, 14 and 16 at 10 mg/kg), read-out: CL.
Where [7] appears, read: supplementary CSV, unit inferred, read-out: Ki TRFRET.
The mark [8] stands for this setting: dosed at 20 mg/kg, read-out: i.v. mouse CL.

T1 sequence (Q07820 whole entry): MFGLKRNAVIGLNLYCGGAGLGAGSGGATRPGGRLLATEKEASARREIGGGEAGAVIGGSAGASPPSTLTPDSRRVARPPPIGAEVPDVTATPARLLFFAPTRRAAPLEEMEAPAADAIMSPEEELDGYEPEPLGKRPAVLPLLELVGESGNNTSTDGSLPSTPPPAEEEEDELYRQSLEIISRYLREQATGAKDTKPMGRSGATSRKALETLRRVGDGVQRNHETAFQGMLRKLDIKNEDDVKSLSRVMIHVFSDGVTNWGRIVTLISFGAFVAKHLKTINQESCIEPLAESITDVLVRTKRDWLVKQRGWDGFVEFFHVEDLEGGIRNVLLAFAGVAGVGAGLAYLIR

In general, GI50 refers to the concentration that inhibits growth by half. The term Ki denotes a measure of affinity in units of concentration, obtained from inhibition or displacement. A word on the EC50: it is the midpoint of the concentration-response curve. A lower EC50 goes with greater potency. As for `COc1ccc2c3c1cc(C(=O)O)n3CCCOCc1nn(C)cc1-c1c(Cl)ccc3c(CCCOc4cc(C)c(Cl)c(C)c4)c4n(c13)[C@H](C)CN2C4=O` [Compound 16, (2^63^4 S a ,1^72^2 R a ,2^4 R)-2^7-Chloro-2^10-(3-(4-chloro-3,5-dimethylphenoxy)propyl)-1^4-methoxy-2^4,3^1-dimethyl-2^1-oxo-2^1,2^2,2^3,2^4-tetrahydro-1^1 H,3^1 H-5-oxa-2(2,6)-pyrazino[1,2-a]indola-1(7,1)-indola-3(4,3)-pyrazolacyclooctaphane-1^2-carboxylic Acid], the figures for the GI50 with NCI-H929 cells, with K562 cells and in the series on A427 cells were 27 ± 3 nM, over 12500 nM and 45 ± 17 nM, respectively. On Mcl-1 (setting [5]), the Ki is under 0.08 nM. In addition, the clearance in series [1] (dosed at 10 mg/kg, read-out: i.v. mouse CL) came to 1.04 L/h/kg; in series [1] (setting [6]) it was 1.04 L/h/kg. For the same compound, the concentration for a half-maximal effect (EC50) in series [2] was 16 nM; in series [3] it was over 3120 nM; in series [4], 24 nM. In series [2], the “H929 Caspase 3/7 maximum activity, fold over vehicle (FoV)” value (from here on “H929 Caspase 3/7 maximum activity, fold”) was 16 fold and 16 (16) fold. For the same compound, the “K562 Caspase 3/7 fold over vehicle (FoV)” value in series [3] was 1.3 fold. The “A427 Caspase 3/7 fold over vehicle (FoV)” value in series [4] is given as 15 fold.

Turning to `COc1c(C)cc2c3c1cc(C(=O)O)n3CCCOCc1nn(C)cc1-c1c(Cl)ccc3c(CCCOc4cc(C)c(Cl)c(C)c4)c4n(c13)[C@H](C)CN2C4=O` [Compound 18, (2^63^4 S a ,1^72^2 R a ,2^4 R)-2^7-Chloro-2^10-(3-(4-chloro-3,5-dimethylphenoxy)propyl)-1^4-methoxy-1^5,2^4,3^1-trimethyl-2^1-oxo-2^1,2^2,2^3,2^4-tetrahydro-1^1 H,3^1 H-5-oxa-2(2,6)-pyrazino [1,2-a]indola-1(7,1)-indola-3(4,3)-pyrazolacyclooctaphane-1^2-carboxylic Acid], the concentration for 50% growth inhibition (GI50) with NCI-H929 cells is 35 ± 16 nM; with K562 cells, over 12500 nM; in the series with A427 cells, 51 ± 20 nM. Besides, the Ki at Mcl-1 (setting [5]) is under 0.08 nM; on Mcl-1 (setting [7]), 0.04 nM. Moreover, the clearance in series [1] (setting [8]) and in series [1] (setting [6]) was 0.888 L/h/kg in each case. The values for the 50% effective concentration (EC50) in series [2], in series [3] and in series [4] were 36 nM, over 3120 nM and 28 nM, respectively. For the same compound, in series [2], the “H929 Caspase 3/7 maximum activity, fold” value was 17 fold. In series [3], the “K562 Caspase 3/7 fold over vehicle (FoV)” value worked out at 1.4 fold. The “A427 Caspase 3/7 fold over vehicle (FoV)” value in series [4] was 16 fold.

In the case of `COCCOc1cc2c3c(cc(C(=O)O)n3CCCOCc3nn(C)cc3-c3c(Cl)ccc4c(CCCOc5cc(C)c(Cl)c(C)c5)c5n(c34)[C@H](C)CN2C5=O)c1OC` [Compound 19, (2^63^4 S a ,1^72^2 R a ,2^4 R)-2^7-Chloro-2^10-(3-(4-chloro-3,5-dimethylphenoxy)propyl)-1^4-methoxy-1^5-(2-methoxyethoxy)-2^4,3^1-dimethyl-2^1-oxo-2^1,2^2,2^3,2^4-tetrahydro-1^1 H,3^1 H-5-oxa-2(2,6)-pyrazino[1,2-a]indola-1(7,1)-indola-3(4,3)-pyrazolacyclooctaphane-1^2-carboxylic Acid], the concentration for 50% growth inhibition (GI50) is 10 ± 3 nM in the series with NCI-H929 cells, over 11200 nM with K562 cells and 18 ± 6 nM in the series with A427 cells. For the same compound, the values for the Ki on Mcl-1 (setting [5]) and on Mcl-1 (setting [7]) were under 0.08 nM and under 0.02 nM, respectively. The clearance in series [1] (setting [8]) and in series [1] (setting [6]) was 1.19 L/h/kg throughout. For the same compound, the EC50 in series [2] was 11 nM; in series [3], over 3120 nM; in series [4], 13 nM. The “H929 Caspase 3/7 maximum activity, fold” value in series [2] turned out to be 16 fold. Also, the “K562 Caspase 3/7 fold over vehicle (FoV)” value in series [3] came out at 1.4 fold. Also, the “A427 Caspase 3/7 fold over vehicle (FoV)” value in series [4] is recorded as 14 fold.

Take `COc1c(OCC2CCOCC2)cc2c3c1cc(C(=O)O)n3CCCOCc1nn(C)cc1-c1c(Cl)ccc3c(CCCOc4cc(C)c(Cl)c(C)c4)c4n(c13)[C@H](C)CN2C4=O` [Compound 20, (2^63^4 S a ,1^72^2 R a ,2^4 R)-2^7-Chloro-2^10-(3-(4-chloro-3,5-dimethylphenoxy)propyl)-1^4-methoxy-2^4,3^1-dimethyl-2^1-oxo-1^5-((tetrahydro-2H-pyran-4-yl)methoxy)-2^1,2^2,2^3,2^4-tetrahydro-1^1 H,3^1 H-5-oxa-2(2,6)-pyrazino[1,2-a]indola-1(7,1)-indola-3(4,3)-pyrazolacyclooctaphane-1^2-carboxylic Acid]: the 50% growth inhibitory concentration (GI50) in the series with NCI-H929 cells is 31 ± 13 nM; in the series with K562 cells it was over 12500 nM; in the series on A427 cells it was 55 ± 26 nM. The Ki on Mcl-1 (setting [5]) came to 0.08 ± 0.02 nM. The clearance in series [1] (setting [8]) and in series [1] (setting [6]) was 0.534 L/h/kg throughout. The EC50 in series [2] is 23 nM; in series [3], over 3120 nM; in series [4] it was 31 nM. For the same compound, the “H929 Caspase 3/7 maximum activity, fold” value in series [2] was 16 fold. Also, the “K562 Caspase 3/7 fold over vehicle (FoV)” value in series [3] is 1.3 fold. For the same compound, in series [4], the “A427 Caspase 3/7 fold over vehicle (FoV)” value was found to be 14 fold.

As to `COc1cc2c3c(cc(C(=O)O)n3CCCOCc3ncccc3-c3c(Cl)ccc4c(CCCOc5cc(C)c(Cl)c(C)c5)c5n(c34)[C@H](C)CN2C5=O)c1OC` [Compound 21, (2^63^4 S a ,1^72^2 R a ,2^4 R)-2^7-Chloro-2^10-(3-(4-chloro-3,5-dimethylphenoxy)propyl)-1^4,1^5-dimethoxy-2^4-methyl-2^1-oxo-2^1,2^2,2^3,2^4-tetrahydro-1^1 H-5-oxa-2(2,6)-pyrazino[1,2-a]indola-1(7,1)-indola-3(3,2)-pyridinacyclooctaphane-1^2-carboxylic Acid], the concentration for 50% growth inhibition (GI50) is 17 ± 8 nM in the series with NCI-H929 cells, over 12500 nM in the series with K562 cells and 39 ± 7 nM in the series with A427 cells. Further, the inhibition constant Ki is under 0.08 nM on Mcl-1 (setting [5]) and under 0.02 nM at Mcl-1 (setting [7]). Besides, the clearance in series [1] (setting [8]) and in series [1] (setting [6]) was 0.48 L/h/kg in each case. In addition, the EC50 is 12 nM in series [2], over 3120 nM in series [3] and 17 nM in series [4]. In addition, in series [2], the “H929 Caspase 3/7 maximum activity, fold” value is 16 fold. Moreover, the “K562 Caspase 3/7 fold over vehicle (FoV)” value in series [3] turned out to be 1.4 fold. Also, the “A427 Caspase 3/7 fold over vehicle (FoV)” value in series [4] was 14 fold.
